Converted amounts (≈) assume the structure as drawn. Read-outs that look alike come from different tables or passages of the source.
Assays:
[1] = system: S. aureus Sa1 ATCC 13709; experiment: microbe, parasite or virus in culture; assay type: cell-based; conditions: for MIC: Staphylococcus aureus
[2] = system: S. aureus Sa26 ATCC 25923; experiment: Antibacterial activity assay (MIC), S. aureus Sa26; assay type: cell-based; conditions: for MIC: Staphylococcus aureus
[3] = system: S. aureus Sa4 NCTC 6571; experiment: Antibacterial activity assay (MIC), S. aureus Sa4; assay type: cell-based; conditions: for MIC: Staphylococcus aureus
[4] = system: S. aureus Sa2 clinical strain NCIMB 41953, MRSA; experiment: microbe, parasite or virus in culture; assay type: cell-based; conditions: for MIC: Staphylococcus aureus, read-out: MIC Sa2
[5] = system: H. influenza Hi47 clinical strain, Ampicillin Resistant; experiment: organism not typed; assay type: cell-based; conditions: for MIC: read-out: MIC Hi47
[6] = system: E. coli Ec1 ATCC 25922; experiment: Antibacterial activity assay (MIC), E. coli Ec1; assay type: cell-based; conditions: for MIC: Escherichia coli
[7] = system: E. coli Ec50 efflux pump KO; experiment: microbe, parasite or virus in culture; assay type: cell-based; conditions: for MIC: Escherichia coli, read-out: MIC Ec50 efflux pump KO
[8] = system: E. coli Ec113 efflux pump KO; experiment: microbe, parasite or virus in culture; assay type: cell-based; conditions: for MIC: Escherichia coli, read-out: MIC Ec113 efflux pump KO
[9] = system: Methicillin Resistant S. aureus (MRSA); experiment: Neutropenic mouse thigh infection model; conditions: Thigh Sa
[10] = system: H. influenza Hi3 ATCC 31517; experiment: organism not typed; assay type: cell-based; conditions: read-out: MIC Hi3
[11] = system: H. influenza Hi10 clinical strain; experiment: organism not typed; assay type: cell-based; conditions: read-out: MIC Hi10
[12] = system: H. influenza Hi106 ATCC 51907; experiment: organism not typed; assay type: cell-based; conditions: read-out: MIC Hi106
[13] = Study 1, 50 mg/kg SC BID, sample time 7 h PI
[14] = Study 2, 50 mg/kg SC BID, sample time 7 h PI
[15] = Study 3, 50 mg/kg SC BID, sample time 7 h PI
[16] = Study 4, 50 mg/kg SC BID, sample time 24 h PI
[17] = Study 5, 50 mg/kg SC BID, sample time 24 h PI
[18] = Study 6, 50 mg/kg SC BID, sample time 24 h PI
[19] = Study 7, 50 mg/kg SC BID, sample time 24 h PI
[20] = Study 8, 50 mg/kg SC QD, sample time 48 h PI
[21] = Study 9, 50 mg/kg SC BID, sample time 24 h PI
[22] = ATCC25923, read-out: MIC Sa26 + 10% SH
[23] = ATCC25923, read-out: MIC Sa26 + 50% SH
[24] = Study 6, 25 mg/kg PO BID, sample time 24 h PI
[25] = Study 7, 15 mg/kg PO BID, sample time 24 h PI
[26] = Study 7, 50 mg/kg PO BID, sample time 24 h PI
[27] = Study 8, 50 mg/kg PO QD, sample time 48 h PI
[28] = Study 9, 50 mg/kg PO BID, sample time 24 h PI

With “8-O-5-Bromo-4-Chloro-1H-pyrrole-2′-carbonylbranimycin [Compound 33]” the “MIC Sa1” value ([1]; S. aureus Sa1 ATCC 13709, sensitive strain, Mueller-Hinton Broth, 37° C.) was >64 µg/mL, the “MIC Sa26 + 10% SH” value ([2]; S. aureus Sa26 + 10% SH) was >64 µg/mL and the “MIC Sa26 + 50% SH” value ([2]; S. aureus Sa26 + 50% SH) was >64 µg/mL. For the same compound, the “MIC Sa26” value ([2]; S. aureus Sa26 ATCC 25923, sensitive strain, Mueller-Hinton Broth, 37° C.) was >64 µg/mL, the “MIC Sa4” value ([3]; S. aureus Sa4 NCTC 6571, sensitive strain) was 64 µg/mL and the “MIC Sa2” value ([4]; S. aureus Sa2 clinical strain, MRSA, Erythromycin Resistant, Fluoroquinolone resistant) was 64 µg/mL. The “MIC Hi47” value ([5]; H. influenza Hi47 clinical strain, Ampicillin Resistant) was >64 µg/mL, the “MIC Ec1” value ([6]; E. coli Ec1 ATCC 25922, sensitive strain) was >64 µg/mL and the “MIC Ec50 efflux pump KO” value ([7]; E. coli Ec50 efflux pump KO) was >64 µg/mL. For the same compound, the “MIC Ec113 efflux pump KO” value ([8]; E. coli Ec113 efflux pump KO) was 6 µg/mL.
For `O=C(O)c1cn(C2CC2)c2cc(N3CCNCC3)c(F)cc2c1=O` [Ciprofloxacin], the Active [9, 13] was “N”, the “Log reduction vs. untreated” value [9, 13] was −1.27 and the Active [9, 14] was “N”. The “Log reduction vs. untreated” value [9, 14] was −1.07, the Active [9, 15] was “N” and the “Log reduction vs. untreated” value [9, 15] was 0.22. For the same compound, the Active [9, 16] was “N”, the “Log reduction vs. untreated” value [9, 16] was −0.05 and the Active [9, 17] was “N”. The “Log reduction vs. untreated” value [9, 17] was −0.27, the Active [9, 18] was “N” and the “Log reduction vs. untreated” value [9, 18] was −0.26. For the same compound, the Active [9, 19] was “N”, the “Log reduction vs. untreated” value [9, 19] was −0.08 and the Active [9, 20] was “N”. The “Log reduction vs. untreated” value [9, 20] was −0.39, the Active [9, 21] was “N” and the “Log reduction vs. untreated” value [9, 21] was −1.28.
With `COC[C@@H](O)[C@H]1OC(=O)[C@H](COC)[C@H]2C=C[C@H]3[C@H]4O[C@]2(/C(C)=C/[C@H]1C)[C@@H]3[C@H](O)[C@@H](C)[C@H]4OC(=O)c1cc(Cl)c[nH]1` [Compound 30, 8-O-4-Chloro-1H-pyrrole-2′-carbonylbaleomycin] the MIC ([1]; ATCC13709, read-out: MIC Sa1) was 16 µg/mL (≈ 27.6 µM), the MIC ([2]; ATCC25923, read-out: MIC Sa26) was 16 µg/mL (≈ 27.6 µM) and the MIC [2, 22] was 32 µg/mL. The MIC [2, 23] was 64 µg/mL, the MIC ([3]; NCTC6571, read-out: MIC Sa4) was 16 µg/mL (≈ 27.6 µM) and the MIC [4] was 8 µg/mL (≈ 13.8 µM). The MIC [10] was > 64 µg/mL, the MIC [11] was 64 µg/mL (≈ 110 µM) and the MIC [5] was 64 µg/mL (≈ 110 µM). For the same compound, the MIC [12] was > 64 µg/mL, the MIC ([6]; ATCC25922, read-out: MIC Ec1) was > 64 µg/mL and the MIC [7] was 16 µg/mL (≈ 27.6 µM). For the same compound, the MIC [8] was 0.5 µg/mL (≈ 0.862 µM).
With `COC[C@@H]1[C@@H](O)[C@@H]2[C@H]3C=C[C@@H]4[C@@H](COC)C(=O)O[C@H]([C@H](O)COC)[C@H](C)/C=C(\C)[C@@]24O[C@H]3[C@@H]1OC(=O)c1cc(Cl)c(Cl)[nH]1` [Compound 31, 8-O-4,5-Dichloro-1H-pyrrole-2′-carbonylbranimycin] the MIC ([1]; ATCC13709, read-out: MIC Sa1) was > 64 µg/mL, the MIC ([2]; ATCC25923, read-out: MIC Sa26) was > 64 µg/mL and the MIC [2, 22] was > 64 µg/mL. The MIC [2, 23] was > 64 µg/mL, the MIC ([3]; NCTC6571, read-out: MIC Sa4) was 64 µg/mL (≈ 99.3 µM) and the MIC [4] was 64 µg/mL (≈ 99.3 µM). For the same compound, the MIC [10] was > 64 µg/mL, the MIC [11] was 16 µg/mL (≈ 24.8 µM) and the MIC [5] was 32 µg/mL (≈ 49.6 µM). For the same compound, the MIC [12] was 32 µg/mL (≈ 49.6 µM), the MIC ([6]; ATCC25922, read-out: MIC Ec1) was > 64 µg/mL and the MIC [7] was > 64 µg/mL. It also gave an MIC [8] of 32 µg/mL (≈ 49.6 µM).
In the case of `COC[C@@H]1[C@@H](O)[C@@H]2[C@H]3C=C[C@@H]4[C@@H](COC)C(=O)O[C@H]([C@H](O)COC)[C@H](C)/C=C(\C)[C@@]24O[C@H]3[C@@H]1OC(=O)c1cc(F)c(F)[nH]1` [Compound 38, 8-O-4,5-Difluoro-1H-pyrrole-2′-carbonylbranimycin], the MIC ([1]; ATCC13709, S. aureus Sa1 ATCC 13709, sensitive strain, Mueller-Hinton Broth, 37° C., read-out: MIC Sa1) is reported as 32 µg/mL (≈ 52.3 µM), the MIC ([2]; ATCC25923, read-out: MIC Sa26 + 10% SH, S. aureus Sa26 + 10% SH) is reported as > 64 µg/mL and the MIC ([2]; ATCC25923, read-out: MIC Sa26 + 50% SH, S. aureus Sa26 + 50% SH) is reported as 64 µg/mL. The MIC ([2]; ATCC25923, S. aureus Sa26 ATCC 25923, sensitive strain, Mueller-Hinton Broth, 37° C., read-out: MIC Sa26) was 64 µg/mL (≈ 105 µM), the MIC ([3]; NCTC6571, S. aureus Sa4 NCTC 6571, sensitive strain, read-out: MIC Sa4) was 16 µg/mL (≈ 26.2 µM) and the MIC [4] was 32 µg/mL (≈ 52.3 µM). The MIC [10] was > 64 µg/mL, the MIC [11] was > 64 µg/mL and the MIC [5] was > 64 µg/mL. For the same compound, the MIC [12] was > 64 µg/mL, the MIC ([6]; ATCC25922, E. coli Ec1 ATCC 25922, sensitive strain, read-out: MIC Ec1) was > 64 µg/mL and the MIC [7] was > 64 µg/mL. The MIC [8] was 8 µg/mL (≈ 13.1 µM).
For `CC(=O)NC[C@H]1CN(c2ccc(N3CCOCC3)c(F)c2)C(=O)O1` [Linezolid], the “Log reduction vs. untreated” value ([9]; Study 5, 50 mg/kg PO BID, sample time 24 h PI) was −4.07, the Active [9, 17] was “Y” and the Active [9, 24] was “Y”. The “Log reduction vs. untreated” value [9, 24] was −4.54, the “Log reduction vs. untreated” value ([9]; Study 6, 50 mg/kg PO BID, sample time 24 h PI) was −3.49 and the Active [9, 25] was “Y”. The “Log reduction vs. untreated” value [9, 25] was −2.98, the Active [9, 26] was “Y” and the “Log reduction vs. untreated” value [9, 26] was −5.13. The Active [9, 27] was “Y”, the “Log reduction vs. untreated” value [9, 27] was −2.78 and the Active [9, 28] was “Y”. For the same compound, the “Log reduction vs. untreated” value [9, 28] was −4.01.

Source: patent US20160297830A1, “NOVEL COMPOUNDS USEFUL FOR THE TREATMENT OF BACTERIAL INFECTIOUS DISEASES” (GALAPAGOS NV, priority 2013, published 2016)
